Assay results: ChEMBL document CHEMBL1201862, “PubChem BioAssay data set” (2004)
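All cell lines were grown in 96-well plates and treated with compound for 48 hours. GI50: concentration for 50% inhibition of growth.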 Active and inactive are the calls of the source. Rule as the data show it: active = GI50 up to about 1.1 µM and inactive = higher.

Assays:
Experiment in all cases: NCI anticancer screen, dose series, 48 h
HOP-92 = system: HOP-92
KM12 = system: KM12
BT-549 = system: BT-549
SK-MEL-2 = system: SK-MEL-2
MOLT-4 = system: MOLT-4
M14 = system: M14
MCF7 = system: MCF7
HT-29 = system: HT-29
CAKI-1 = system: CAKI-1
TK-10 = system: TK-10
ACHN = system: ACHN
UACC-257 = system: UACC-257
SK-OV-3 = system: SK-OV-3
SR = system: SR
SNB-19 = system: SNB-19
DU-145 = system: DU-145
OVCAR-4 = system: OVCAR-4
OVCAR-3 = system: OVCAR-3

Measured: GI50

O=c1oc2ccc3ccccc3c2cc1-c1nc2ccccc2o1
inactive: HOP-92 16.4 µM | KM12 27.3 µM | BT-549 31.3 µM | SK-MEL-2 20.6 µM | MOLT-4 35.2 µM | M14 33.2 µM | MCF7 1.26 µM | HT-29 20.7 µM | CAKI-1 17.1 µM | TK-10 > 52.1 µM | ACHN 13.9 µM | UACC-257 > 49.9 µM | SK-OV-3 25.6 µM | SR 16.2 µM | SNB-19 19.7 µM | DU-145 20.7 µM | OVCAR-4 21 µM | OVCAR-3 15.3 µM

COc1c(-c2nc3ccc(N4CCN(C)CC4)nc3[nH]2)cc(OC)c2[nH]c(CO)nc12
inactive: HOP-92 > 100 µM | KM12 93.5 µM | BT-549 > 100 µM | SK-MEL-2 32 µM | MOLT-4 52.2 µM | M14 > 100 µM | MCF7 11.2 µM | HT-29 > 100 µM | CAKI-1 > 100 µM | TK-10 > 100 µM | ACHN > 100 µM | UACC-257 > 100 µM | SK-OV-3 > 100 µM | SR > 100 µM | SNB-19 42.6 µM | DU-145 > 100 µM | OVCAR-4 70 µM | OVCAR-3 39.3 µM

O=C(CCCN1CCC2(CC1)C(=O)NC(=O)N2c1ccccc1)c1ccc(F)cc1
inactive: HOP-92 > 100 µM | KM12 > 100 µM | BT-549 > 100 µM | SK-MEL-2 > 100 µM | MOLT-4 > 100 µM | M14 > 100 µM | MCF7 > 100 µM | HT-29 66.2 µM | CAKI-1 > 100 µM | TK-10 > 100 µM | ACHN > 100 µM | UACC-257 > 100 µM | SK-OV-3 > 100 µM | SR > 100 µM | SNB-19 > 100 µM | DU-145 > 100 µM | OVCAR-4 > 100 µM | OVCAR-3 > 100 µM

COC(=O)[C@]12CC[C@H]3CN(C(=O)OCc4ccccc4)[C@H]([C@H]31)[C@H](c1ccco1)N2S(=O)(=O)c1ccc(C)cc1
inactive: HOP-92 12.8 µM | KM12 19.3 µM | BT-549 15.7 µM | SK-MEL-2 20.7 µM | MOLT-4 21.8 µM | M14 17.5 µM | MCF7 17.5 µM | HT-29 20.6 µM | CAKI-1 28.8 µM | TK-10 33.2 µM | ACHN 35.3 µM | UACC-257 20.3 µM | SK-OV-3 52.1 µM | SR 13.5 µM | SNB-19 34 µM | DU-145 32.3 µM | OVCAR-4 28.5 µM | OVCAR-3 19.1 µM

CCOC(=O)c1c(N2CCOCC2)[nH]c(=O)c(C(c2ccc(N(C)C)cc2)c2c(O)c(C(=O)OCC)c(N3CCOCC3)[nH]c2=O)c1O
inactive: HOP-92 > 100 µM | KM12 > 100 µM | BT-549 > 100 µM | SK-MEL-2 > 100 µM | MOLT-4 > 100 µM | M14 > 100 µM | MCF7 > 100 µM | HT-29 > 100 µM | CAKI-1 > 100 µM | TK-10 > 100 µM | ACHN > 100 µM | UACC-257 > 100 µM | SK-OV-3 > 100 µM | SR > 100 µM | SNB-19 > 100 µM | DU-145 > 100 µM | OVCAR-4 > 100 µM | OVCAR-3 > 100 µM

FC(F)(F)c1ccc2c(c1)nc(-c1ccccc1)n2CC1CCCN2CCCCC12 (stereo not drawn)
inactive: HOP-92 18.8 µM | KM12 19.2 µM | BT-549 16.7 µM | SK-MEL-2 15.3 µM | MOLT-4 25.9 µM | M14 17.1 µM | MCF7 17.1 µM | HT-29 16.1 µM | CAKI-1 17.3 µM | TK-10 19.6 µM | ACHN 19.9 µM | UACC-257 15.9 µM | SK-OV-3 16.9 µM | SR 17.6 µM | SNB-19 34.8 µM | DU-145 27 µM | OVCAR-4 34.8 µM | OVCAR-3 23.5 µM
